Results on 5 compounds are retold here after patent US7723304B2, “Systems for delivery and release of angiotensin-(1-7)” (Universidade Federal De Minas Gerais—UFMG, priority 2001, dated 2010).

Test [1] has as its system G protein-coupled receptor, MAS. In words: binding of labeled angiotensin-(1-7) in mouse kidney slices (normal or MAS knockout). The settings on record: MAS knockout mice, 4 °C, autoradiography or fluorescent microscopy. The protocol:
(§1) After incubation for variable intervals at 4 °C the slices were exposed to autoradioghraphic films or analysed by flourescent microscopy. […] The functional test for the absence of binding in knockout mice was made using the water diuresis model (administration of 5% of the body weight, of H2O).

Test [2] addresses T1, G protein-coupled receptor, MAS (Mus musculus, UniProt P30554).
T1 construct: from tissue; host or cells: mouse kidney slices (wild type; MAS knockout as control)
T1 sequence (P30554 1-324): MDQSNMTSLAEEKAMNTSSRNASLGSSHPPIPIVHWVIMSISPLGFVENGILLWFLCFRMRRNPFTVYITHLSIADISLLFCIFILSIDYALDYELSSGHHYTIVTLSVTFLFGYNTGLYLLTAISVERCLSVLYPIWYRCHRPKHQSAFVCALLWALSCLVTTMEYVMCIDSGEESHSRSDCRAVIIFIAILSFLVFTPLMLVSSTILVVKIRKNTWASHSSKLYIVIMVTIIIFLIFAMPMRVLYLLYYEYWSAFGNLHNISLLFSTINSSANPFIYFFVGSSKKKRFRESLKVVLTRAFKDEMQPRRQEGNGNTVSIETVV
The description is as above. The settings on record: wild type mice. As to the method: as §1

Test [3] deals with T1, G protein-coupled receptor, MAS. Nature of the test: water diuresis model in wild type and MAS knockout mice. In kind it is in vivo. The settings on record: wild type mice, 4 pmol/10 g BW, water load 5% of body weight. As to the method:
(§2) Angiotensin-(1-7) labeled with 125I or rhodamine-angiotensin-(1-7), fluorescent, were incubated with mouse kidney slices from normal or MAS knockout animals. After incubation for variable intervals at 4 °C the slices were exposed to autoradioghraphic films or analysed by flourescent microscopy. In the knockout mice the specif binding for angiotensin-(1-7) disappeared while the binding for Ang II or Ang IV, used as controls, was inaltered. The Ang_(1-7) binding in kidney slices of wild type mice was displaced by the analogues D-Ala^7-Angiotensin-(1-7) e D-Pro^7-Angiotensin-(1-7). The functional test for the absence of binding in knockout mice was made using the water diuresis model (administration of 5% of the body weight, of H2O). […] In MAS knockout mice the antidiuretic effect of Ang-(1-7) was absent.

Test [4] concerns G protein-coupled receptor, MAS. The test is described as above. In kind it is in vivo, mouse. The settings on record: MAS knockout mice, water load 5% of body weight. The protocol: as §2
The target of the next test is ACE (Homo sapiens, UniProt P12821). The settings on record: read-out: IC50 for inhibition of ACE; cited from earlier work.
Sequence of ACE (P12821 30-1306, species assumed): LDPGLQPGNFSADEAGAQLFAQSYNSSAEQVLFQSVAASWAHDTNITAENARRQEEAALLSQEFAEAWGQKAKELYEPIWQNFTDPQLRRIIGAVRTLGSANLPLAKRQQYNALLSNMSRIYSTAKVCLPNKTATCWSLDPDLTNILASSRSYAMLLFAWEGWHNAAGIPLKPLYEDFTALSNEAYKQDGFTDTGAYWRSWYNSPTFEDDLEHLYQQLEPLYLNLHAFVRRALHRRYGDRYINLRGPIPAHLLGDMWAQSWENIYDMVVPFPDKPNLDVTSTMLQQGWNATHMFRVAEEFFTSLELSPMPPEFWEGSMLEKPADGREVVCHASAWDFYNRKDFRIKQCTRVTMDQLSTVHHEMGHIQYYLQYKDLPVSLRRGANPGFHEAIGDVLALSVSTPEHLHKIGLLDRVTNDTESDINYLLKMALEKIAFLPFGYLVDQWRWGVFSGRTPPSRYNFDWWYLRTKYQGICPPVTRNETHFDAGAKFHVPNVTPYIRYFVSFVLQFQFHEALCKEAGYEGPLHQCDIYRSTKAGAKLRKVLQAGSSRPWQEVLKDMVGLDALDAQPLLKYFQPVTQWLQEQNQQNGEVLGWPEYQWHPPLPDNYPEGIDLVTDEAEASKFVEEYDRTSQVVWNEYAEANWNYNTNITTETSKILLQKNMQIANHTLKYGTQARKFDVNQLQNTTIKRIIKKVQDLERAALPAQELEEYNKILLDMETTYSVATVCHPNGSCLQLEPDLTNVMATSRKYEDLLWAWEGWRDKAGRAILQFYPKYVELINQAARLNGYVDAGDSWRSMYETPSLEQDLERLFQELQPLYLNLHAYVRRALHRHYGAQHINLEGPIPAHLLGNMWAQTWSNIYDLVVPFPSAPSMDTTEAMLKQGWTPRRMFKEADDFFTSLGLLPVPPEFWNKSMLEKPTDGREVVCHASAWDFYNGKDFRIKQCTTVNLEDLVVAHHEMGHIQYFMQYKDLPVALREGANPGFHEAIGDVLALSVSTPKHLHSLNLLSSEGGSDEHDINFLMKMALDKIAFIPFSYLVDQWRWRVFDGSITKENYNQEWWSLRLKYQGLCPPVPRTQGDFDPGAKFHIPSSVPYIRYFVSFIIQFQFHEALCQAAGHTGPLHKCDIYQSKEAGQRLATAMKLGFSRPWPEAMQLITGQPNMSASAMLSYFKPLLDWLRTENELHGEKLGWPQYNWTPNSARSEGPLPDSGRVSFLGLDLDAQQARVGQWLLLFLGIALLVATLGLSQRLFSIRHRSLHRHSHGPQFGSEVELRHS
The test system of a further test is Wistar rats. The note with it: free (not encapsulated) peptide, 25-50 ng in the RVLM, previous studies; cited from earlier work.

`CC[C@H](C)[C@H](NC(=O)[C@H](Cc1ccc(O)cc1)NC(=O)[C@@H](N)C(C)C)C(=O)N[C@@H](Cc1cnc[nH]1)C(=O)N1CCC[C@H]1C(=O)N[C@@H](Cc1ccccc1)C(=O)O` [Ang IV]: in test [1], the “binding in kidney slices of MAS knockout mice” value (shortened to “binding … of MAS knockout mice”) was “inaltered”.

As to “Ang II: main peptide of RAS, used as binding control (DRVYIHPF; Angiotensin-2; UniProt P01019 25-32, looked up)”, the “binding … of MAS knockout mice” value in test [1] is on record as “inaltered”.

On to “D-Pro7-Ang-(1-7) [D-Pro^7-Angiotensin-(1-7)]”, for which the “displacement of Ang-(1-7) binding in kidney slices” value in test [2] is listed as “displaced”.

For the compound “D-[Ala^7]-Ang-(1-7) [D-Ala^7-Angiotensin-(1-7)]”, in test [2], the “displacement of Ang-(1-7) binding in kidney slices” value is listed as “displaced”.

For “DRVYIHP [Ang-(1-7), Asp-Arg-Val-Tyr-Ile-His-Pro]”, the “binding … of MAS knockout mice” value in test [1] is listed as “disappeared”. Further, the “urine volume (antidiuresis)” value in test [3] was “reduction of the urine volume”. Besides, the antidiuretic effect entry in test [4] is “absent”. Further, the IC50 – broadly, the midpoint of a concentration-inhibition curve – on ACE is approximately 1 µM. For the same compound, in the test on Wistar rats, the “duration of increase of PAM” value is on record as “approximately 10 min” and the “increase of PAM” value was 15 mmHg.
